Where “and” joins values, the source holds several entries; their conditions need not be identical. Identical values can stand only once. Like-named read-outs stand apart in the source and are kept apart here.
Target: human dopamine transporter (hDAT) (Homo sapiens, UniProt Q01959)
Assay: cell-based
Format: cell-based
Conditions: for Relative persistent current (Ip relative to Io) after washout: as a function of concentration, Ip current remaining after washout before block with cocaine; for Depolarizing current: data not shown
[1] = Hill fit of dose-response normalized to 10 μM DA, −60 mV
[2] = ability to generate a persistent current at 10 μM and −60 mV

human dopamine transporter (hDAT), sequence (Q01959 whole entry): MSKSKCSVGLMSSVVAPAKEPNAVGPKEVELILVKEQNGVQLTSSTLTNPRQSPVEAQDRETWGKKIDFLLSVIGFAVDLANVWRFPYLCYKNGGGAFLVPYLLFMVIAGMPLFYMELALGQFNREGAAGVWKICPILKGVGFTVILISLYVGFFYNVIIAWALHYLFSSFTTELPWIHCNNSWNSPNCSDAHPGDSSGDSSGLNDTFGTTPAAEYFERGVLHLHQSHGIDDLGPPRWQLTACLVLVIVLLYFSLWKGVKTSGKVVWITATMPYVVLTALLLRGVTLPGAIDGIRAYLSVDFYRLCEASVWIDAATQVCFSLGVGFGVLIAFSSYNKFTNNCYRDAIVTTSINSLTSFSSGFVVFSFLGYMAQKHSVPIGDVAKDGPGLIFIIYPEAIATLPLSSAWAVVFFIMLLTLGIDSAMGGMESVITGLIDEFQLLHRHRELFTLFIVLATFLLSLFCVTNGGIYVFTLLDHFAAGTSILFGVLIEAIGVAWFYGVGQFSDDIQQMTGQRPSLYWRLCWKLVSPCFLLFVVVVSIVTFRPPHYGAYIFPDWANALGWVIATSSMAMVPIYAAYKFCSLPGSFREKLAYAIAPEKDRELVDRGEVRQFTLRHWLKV

**Q.** With `Br.C[C@H](N)Cc1ccc(O)c(O)c1` [S(+) α-Me DA (S7), S(+)-1-(3,4-Dihydroxyphenyl)-2-aminopropane hydrobromide] as the compound, how does the Hill coefficients [1] read?
**A.** The Hill coefficients was 0.71 ± 0.11.

**Q.** And the “Persistent Current” value [2]?
**A.** Its value is “No”.

**Q.** For `NCCc1ccccc1` [β-PEA (5), 2-phenyl-1-aminoethane, reference compound], which Persistent Current (100 μM, −60 mV) is on record?
**A.** Its Persistent Current is “pronounced persistent current”.

**Q.** And the Hill coefficients [1]?
**A.** Its Hill coefficients is 1.06 ± 0.16.

**Q.** What about the “Persistent Current” value [2] of the same compound?
**A.** The value was “Yes”.

**Q.** What about the “Relative persistent current (Ip relative to Io) after washout” value (“Relative persistent current” below) (−60 mV) of the same compound?
**A.** Its value is “much lower persistent current than S(+)AMPH (S1)”.

**Q.** `C[C@@H](N)Cc1ccc(O)cc1.Cl` [R(−) α-Me 3-des-OH DA (R6), R(–)-1-(4-Hydroxyphenyl)-2-aminopropane hydrochloride] was tested. Which Hill coefficients [1] did it give?
**A.** The Hill coefficients was 0.98 ± 0.08.

**Q.** And the “Persistent Current” value [2]?
**A.** The value was “No”.

**Q.** And the “Relative persistent current” value (−60 mV)?
**A.** Its value is “much lower persistent current than S(+)AMPH (S1)”.

**Q.** For `COC(=O)[C@H]1[C@@H](OC(=O)c2ccccc2)C[C@@H]2CC[C@H]1N2C` [Cocaine, reference compound], which “Block of induced currents through hDAT” value is on record?
**A.** Its value is “blocks the DA- and R(−)AMPH-induced initial currents”.

**Q.** With `NCCc1ccc(O)c(O)c1` [DA (2), dopamine, reference compound] as the compound, how does the Hill coefficients read?
**A.** Its Hill coefficients is 1.32 ±0.07.

**Q.** And the “Persistent Current” value?
**A.** Its value is “No”.

**Q.** And the “Rank order of efficacy” value?
**A.** Its value is “S(+)AMPH > DA > R(−)AMPH”.

**Q.** How did the Depolarizing current (10 μM) turn out when `COc1cccc(CCN)c1` [compound 9, 2-(3-methoxyphenyl)-1-aminoethane] was run?
**A.** The Depolarizing current was “comparatively small depolarizing currents”.

**Q.** What does the source list for `NCCc1cccc(O)c1` [4-des-OH DA (4), 2-(3-Hydroxyphenyl)-1-aminoethane]?
**A.** Hill coefficients [1]: 1.07 ±0.09; Persistent Current [2]: No; Persistent Current (ability to generate a persistent current at 10 μM and −60 mV, listed as 4-des-OH DA): no pronounced persistent current

**Q.** What does the source list for `Br.C[C@@H](N)Cc1ccc(O)c(O)c1` [R(−) α-Me DA (R7), R(−)-1-(3,4-Dihydroxyphenyl)-2-aminopropane hydrobromide]?
**A.** Hill coefficients [1]: 0.55 ± 0.06; Persistent Current [2]: No

**Q.** How did the Hill coefficients turn out when `Cl.NCCc1ccc(O)cc1` [3-des-OH DA (3), 2-(4-Hydroxyphenyl)-1-aminoethane hydrochloride] was run?
**A.** The Hill coefficients was 0.91 ±0.08.

**Q.** And the “Persistent Current” value?
**A.** Its value is “no pronounced persistent current and No”.

**Q.** And the EC50 (EC50)?
**A.** Its EC50 is 1450 nM and 1430 nM.

**Q.** Which “Recovery time constant T50 upon removal of compound, compared to DA” value (10 μM, −60 mV, normalized to 10 μM DA in same cell) does the source give for `C[C@H](N)Cc1ccc(O)cc1.Cl` [S(+) α-Me 3-des-OH DA (S6), S(+)-1-(4-Hydroxyphenyl)-2-aminopropane hydrochloride] here?
**A.** Its value is “no significant differences”.

**Q.** And the Hill coefficients [1]?
**A.** Its Hill coefficients is 0.49 ± 0.05.

**Q.** And the “Persistent Current” value [2]?
**A.** The value was “No”.

**Q.** And the “Relative persistent current” value (−60 mV)?
**A.** Its value is “much lower persistent current than S(+)AMPH (S1)”.

**Q.** With `COC(=O)[C@H]1C(c2ccc(I)cc2)C[C@@H]2CC[C@H]1N2C` (stereo partly shown) [RTI-55, reference compound] as the compound, how does the “Block of S(+)AMPH-induced initial peak current and persistent current” value (10 μM RTI-55, −60 mV) read?
**A.** Its value is “blocked”.

**Q.** For `COc1ccc(CCN)cc1` [compound 8, 2-(4-Methoxyphenyl)-1-aminoethane], which Depolarizing current (10 μM) is on record?
**A.** The Depolarizing current was “comparatively small depolarizing currents”.

Source: PMC5875417 (ACS chemical neuroscience, 2015)
